Target: T1, rTsTrx-1 (Taenia solium thioredoxin-1) (Taenia solium, UniProt A0A0A1E9C2)
T1 construct: gene Trx; full-length coding region, 107 residues, 11,579 Da, active site CGPC; N-terminal six-histidine tag (pRSETB), no tag removal stated
T1 sequence (A0A0A1E9C2 1-107): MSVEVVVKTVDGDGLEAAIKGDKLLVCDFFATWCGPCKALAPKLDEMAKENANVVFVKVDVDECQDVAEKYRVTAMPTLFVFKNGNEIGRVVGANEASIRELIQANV
Assay: DTT/insulin reduction turbidity assay at […] nm
Type: biochemical
Conditions: 20 ug enzyme (1.5 uM) preincubated with MG 30 min at 37 C; insulin 160 uM, 1 mM DTT, 2 mM EDTA, potassium phosphate pH 6.5

## CC(=O)C=O [MG, methylglyoxal]
  % decrease of activity at 3 mM: 25%

Source: publication PMC4452251, “Characterization of a Thioredoxin-1 Gene from Taenia solium and Its Encoding Product” (BioMed Research International, 2015)
